Reference: patent publication US7928057B2, “Peptide for inhibition of calcineurin, nucleic acid, antibody, and diagnostic and therapeutic methods of use” (Julius-Maximilians-Universitaet Wuerzburg, priority 2006, dated 2011)
Entries after “also recorded” stand apart in the source; their conditions may differ. Where no end group is shown, it is not given here.

Tests used:
CRM1 = molecular target: T1, CRM1 (Rattus norvegicus, UniProt Q80U96); test: CRM1 mediated nuclear export of CnA in cardiomyocytes; type: cell-based; settings: full length CnA imported by Ang II stimulation, calpeptin added
T1 construct: endogenous in cells; host or cells: cardiomyocytes (neonatal rat)
T1 sequence (Q80U96 whole entry): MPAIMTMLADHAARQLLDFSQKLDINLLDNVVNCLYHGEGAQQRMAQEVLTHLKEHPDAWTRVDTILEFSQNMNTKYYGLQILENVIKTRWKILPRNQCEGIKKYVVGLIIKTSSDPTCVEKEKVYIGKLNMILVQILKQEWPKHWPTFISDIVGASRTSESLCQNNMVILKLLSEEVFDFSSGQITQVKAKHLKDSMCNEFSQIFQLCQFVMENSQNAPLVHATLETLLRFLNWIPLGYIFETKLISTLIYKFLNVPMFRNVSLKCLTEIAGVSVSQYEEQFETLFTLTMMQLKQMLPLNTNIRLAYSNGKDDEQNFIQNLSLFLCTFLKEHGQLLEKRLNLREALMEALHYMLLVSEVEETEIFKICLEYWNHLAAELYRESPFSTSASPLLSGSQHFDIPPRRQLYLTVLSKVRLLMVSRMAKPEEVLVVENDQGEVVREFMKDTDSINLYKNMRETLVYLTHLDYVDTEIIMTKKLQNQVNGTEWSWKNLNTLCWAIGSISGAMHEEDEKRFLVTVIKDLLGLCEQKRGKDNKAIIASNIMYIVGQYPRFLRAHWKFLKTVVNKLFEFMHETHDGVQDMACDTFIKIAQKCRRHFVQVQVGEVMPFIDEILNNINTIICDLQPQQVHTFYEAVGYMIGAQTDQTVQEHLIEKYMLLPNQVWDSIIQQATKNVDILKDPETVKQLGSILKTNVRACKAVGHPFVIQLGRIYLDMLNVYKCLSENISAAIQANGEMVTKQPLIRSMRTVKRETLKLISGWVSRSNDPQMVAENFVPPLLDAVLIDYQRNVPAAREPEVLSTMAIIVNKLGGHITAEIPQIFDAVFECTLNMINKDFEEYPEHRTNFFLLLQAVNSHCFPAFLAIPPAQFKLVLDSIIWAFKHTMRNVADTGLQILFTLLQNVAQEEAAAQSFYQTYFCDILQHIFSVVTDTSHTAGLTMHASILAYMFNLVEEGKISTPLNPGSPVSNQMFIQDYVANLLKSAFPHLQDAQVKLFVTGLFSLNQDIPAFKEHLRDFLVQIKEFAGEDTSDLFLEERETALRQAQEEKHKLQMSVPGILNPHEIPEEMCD
Procedure: To address whether CnA nuclear export is mediated by CRM1, experiments using the CRM1 specific inhibitor, leptomycin B (LMB), were performed. Agonist-dependent nuclear import of full length CnA was achieved by Ang II stimulation. Calpeptin was added to prevent proteolysis of CnA.

[1] = system: cJUN, ERK 1/2, GATA4, NFAT2; test: Specificity: nuclear accumulation of other transcription factors in phenylephrin stimulated cardiomyocytes; type: cell-based; settings: cardiomyocytes stimulated with phenylephrin; FIG. 9
Text: The inventor also analyzed the specificity with the peptide (AAVALLPAVLAALAA KQECKIKYSERV SEQ ID NO: 5). In theory this peptide that mimics the Calcineurin NLS saturates the binding site on importin and therefore might completely block importin function for other transcription factors as well.

[2] = molecular target: T2, calcineurin (CnA)/importin β1 interaction (Homo sapiens, UniProt Q14974); test: Peptide competition / co-immunoprecipitation of calcineurin with importin β1; type: binding; settings: HeLa cells transfected with GFP-tagged CnA mutants (FIG. 3)
T2 construct: expressed in transfected cells; host or cells: HeLa cells (importin β1 endogenous, EGFP-CnAβ transfected)
T2 sequence (Q14974 whole entry): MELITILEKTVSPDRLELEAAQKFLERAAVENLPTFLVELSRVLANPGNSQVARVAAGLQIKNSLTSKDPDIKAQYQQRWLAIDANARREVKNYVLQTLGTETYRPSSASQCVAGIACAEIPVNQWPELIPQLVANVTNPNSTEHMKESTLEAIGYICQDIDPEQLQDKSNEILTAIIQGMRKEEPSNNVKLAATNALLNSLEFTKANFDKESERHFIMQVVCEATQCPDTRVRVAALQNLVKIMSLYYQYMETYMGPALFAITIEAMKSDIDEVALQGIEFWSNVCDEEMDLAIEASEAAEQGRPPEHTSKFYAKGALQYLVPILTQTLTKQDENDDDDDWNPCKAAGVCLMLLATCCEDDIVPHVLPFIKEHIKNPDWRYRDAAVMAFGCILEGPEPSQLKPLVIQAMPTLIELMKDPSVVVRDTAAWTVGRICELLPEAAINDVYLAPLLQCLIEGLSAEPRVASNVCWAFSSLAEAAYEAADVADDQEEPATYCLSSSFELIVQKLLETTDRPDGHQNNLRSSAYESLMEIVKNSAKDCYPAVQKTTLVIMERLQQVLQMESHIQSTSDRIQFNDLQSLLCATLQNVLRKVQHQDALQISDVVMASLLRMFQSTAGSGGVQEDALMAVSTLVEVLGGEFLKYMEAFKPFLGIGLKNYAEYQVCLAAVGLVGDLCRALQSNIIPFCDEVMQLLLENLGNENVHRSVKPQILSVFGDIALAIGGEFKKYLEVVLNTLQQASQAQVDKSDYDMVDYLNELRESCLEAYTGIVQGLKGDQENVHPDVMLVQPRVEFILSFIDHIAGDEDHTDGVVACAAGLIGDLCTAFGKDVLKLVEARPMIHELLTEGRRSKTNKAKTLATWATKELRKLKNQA
Procedure: Immunoprecipitation of the CnA/importin complexes was performed with importin β1 antibodies, detection with a GFP antibody.
Epitope-tagged derivatives of calcineurin Aβ containing amino-terminal EGFP were generated using the mammalian expression vector pEGFP-C3 (BD Bioscience Clontech). For cloning of calcineurin mutants the mammalian expression vector pCMV-Sport6 containing the directionally cloned cDNA of human calcineurin Aβ was used (Invitrogen). The following mutants have been amplified by PCR, digested with XbaI and XhoI and cloned into the XbaI and XhoI sites of the described plasmid: CnAβ(full), CnAβ 1-415, CnAβ 1-425, CnAβ 1-445, CnAβ 1-465, CnAβ 1-485 and CnAβ 171-190. For these truncated mutants different reverse oligonucleotides were designed with subsequent N-terminal binding sites. The forward primer, binding at the N-terminus of calcineurin, was identical for each plasmid apart from the CnA(171-190) mutant. For this derivative primers are bound upstream of aa 171 and downstream of aa 190, respectively. Two internal mutants CnAβ(Δ420-434) and CnAβ(Δ420-445) were cloned into the XbaI and XhoI sites of pEGFP-C3 using a two step strategy. […]
(§1) The subcellular distribution of calcineurin was determined by immunofluorescence stainings. The primary antibodies used in fluorescence staining are described elsewhere (Burkhard et al., 2005). […]

[3] = system: nuclear import of calcineurin (CnA) via importin β1; test: Peptide competition assay: nuclear import of calcineurin in cardiomyocytes; type: cell-based; settings: neonatal rat cardiomyocytes stimulated with Ang II; peptide added to the medium (1 μM)
Procedure: (§2) Neonatal rat cardiomyocytes were incubated with a peptide mimicking the NLS sequence of CnA (SEQ ID NO:2) and stimulated with Ang II ([…]). […] Nuclear import of CnA was therefore prevented. Control experiments were performed with a non-sense peptide SEQ ID NO: 3).
(§3) Neonatal rat cardiomyocytes of Wistar rats were isolated as described previously (Ritter et al., 2003). Cells were resuspended in minimum essential medium/1% FCS. After preplating, the cardiomyocyte containing supernatant was recovered, and cells were plated in minimum essential medium on 6-well plates at a density of 1×10^6 cells per well. The medium for cardiomyocytes contained 5-bromo-2′-deoxyuridine (0.1 mmol/L) to suppress fibroblast growth. Fibroblast contamination of cardiomyocyte cultures was between 4% and 7% as regularly determined by immunohistochemical staining for troponin T. HeLa cells were grown in DMEM/5% FCS (Sigma). 48 hours after preparation, cells were stimulated with 10 nmol/L angiotensin II (Ang II). Cells were harvested 24 hours after stimulation. Concentrations were as follows: Ang II: 10 μM, calpeptin: 10 μM, NLS peptide and control peptide: 1 μM, respectively.
as §1

calcineurin (CnA) = test: CnA phosphatase activity (specific phosphosubstrate RII, Biomol kit); type: biochemical, rat; settings: cardiomyocytes stimulated with Ang II (10 μM); n=8, p=not significant
Procedure: as §3, with “48 hours after preparation, cells were stimulated with 10 nmol/L angiotensin II (Ang II). Cells were harvested 24 hours after stimulation. Concentrations were as follows: Ang II: 10 μM, calpeptin: 10 μM, NLS peptide and control peptide: 1 μM, respectively.” left out
NF-ATc reporter plasmid comprised the II-2 promoter followed by luciferase. Luciferase activity was determined according to the manufacturer's protocol (Promega). CnA phosphatase activity was determined using a commercial kit (CnA kit assay, Biomol) that measures effect on a specific CnA phosphosubstrate. […]
Phosphatase activity, transcriptional activity, protein synthesis, cell size and makers of myocardial hypertrophy in response to the peptide related inhibition of CnA nuclear import were examined. Phosphatase activity was assessed employing a specific substrate (RII) for can (Ritter et al., 2002). Cardiomyocytes were stimulated with Ang II (10 μM), and CnA phosphatase activity was measured in the presence of the NLS peptide or a non sense control peptide. […]

Ang II treated mice = test: Ang II (osmotic minipump) induced myocardial hypertrophy in mice; type: in vivo; settings: for dilation of the left ventricle (left ventricular end diastolic diameter, LVEDD): mice with implanted mini-osmotic pumps with AngII, FIG. 8; for development of myocardial hypertrophy in vivo (heart/body weight ratio, molecular markers, echocardiography): cyclic peptide 25 mg/kg body weight/day i.p.
Procedure: For in vivo use the blocking peptide, that mimics the calcineurin nuclear localization signal (NLS) received a peptide extension to increase membrane permeability and was synthesised as a cyclic peptide to withstand proteolysis of N- and C-terminal proteases. This peptide was administered twice daily at a concentration of 25 mg/kg body weight/day by i.p. injections into mice. The mice were treated with implanted osmotic minipumps to release either angiotensin II or saline as control.
The inventor now extended his experiments to in vivo data.

[4] = system: CnA/NF-ATc signalling pathway; test: NF-ATc luciferase reporter plasmid transcriptional activity; type: cell-based, rat
Procedure: as §3
NF-ATc reporter plasmid comprised the II-2 promoter followed by luciferase. Luciferase activity was determined according to the manufacturer's protocol (Promega). CnA phosphatase activity was determined using a commercial kit (CnA kit assay, Biomol) that measures effect on a specific CnA phosphosubstrate. Free PO4 was indicated by a malachite green dye. The use of this kit has been described previously (Ritter et al., 2002).
(§4) Phosphatase activity, transcriptional activity, protein synthesis, cell size and makers of myocardial hypertrophy in response to the peptide related inhibition of CnA nuclear import were examined. Phosphatase activity was assessed employing a specific substrate (RII) for can (Ritter et al., 2002). Cardiomyocytes were stimulated with Ang II (10 μM), and CnA phosphatase activity was measured in the presence of the NLS peptide or a non sense control peptide. […] Similarly, myocardial hypertrophy, as evidenced by protein synthesis (707±21% vs. 133±12%, n=8, p<0.05), cell size (1191±91 μm^2 vs. 728±65 μm^2, n=8, p<0.05) (FIG. 5B), and expression of brain natriuretic peptide (BNP) (163±11% vs. 88±8%, n=8, p<0.05) (FIG. 5C), were suppressed by the NLS peptide.

[5] = system: neonatal rat cardiomyocytes; test: Markers of myocardial hypertrophy in Ang II stimulated cardiomyocytes (protein synthesis, cell size, BNP); type: cell-based; settings: cardiomyocytes stimulated with Ang II (10 μM); n=8, p<0.05
Procedure: as §2, §3, §4

NFAT Luciferase reporter = NFAT Luciferase reporter transgenic mice treated with angiotensin II; type: in vivo
T cells = T cells stimulated with spleen dendritic cells (H3-thymidin incorporation); type: cell-based; settings: T cells stimulated with spleen dendritic cells and simultaneously treated with peptide; FIG. 6
Text: Bars indicate protein synthesis (H3-thymidin incorporation).
The inventor now extended the experiments to T-cells and to in vivo experiments in mice.

Molecule | nuclear accumulation/import of selected transcription factors (cJUN, ERK 1/2, GATA4, NFAT2) [1] | calcineurin interaction/binding with importin β1 [2] | nuclear import (translocation) of CnA [3] | total CnA phosphatase activity (calcineurin (CnA)) | dilation of the left ventricle (left ventricular end diastolic diameter, LVEDD) (Ang II treated mice) | development of myocardial hypertrophy in vivo (heart/body weight ratio, molecular markers, echocardiography) (Ang II treated mice; Ang II minipump mice) | further results
CCC(=C/[C@H](C)C/C=C/C(C)=C/[C@@H](C)C(=O)[C@@H](C)[C@H](O)[C@@H](C)C/C(C)=C/C(=O)O)/C=C/[C@@H]1OC(=O)C=C[C@@H]1C [LMB, leptomycin B] |  |  |  |  |  |  | nuclear export of CnA (CRM1): suppressed nuclear export of CnA
AAVALLPAVLAALAA KQECKIKYSERV (AAVALLPAVLAALAAKQECKIKYSERV; alternative nucl loc signal plus membrane anker) [SEQ ID NO: 5] | did not block import |  |  |  |  |  | 
AAVALLPAVLLALLAAQECAIAYSEYV (control peptide and membrane anker) [non sense peptide used in control experiments, reference compound] |  | did not interfere with the calcineurin/importin binding | not inhibited | 289±17% | did not prevent left ventricular dilation |  | 
AAVALLPAVLLALLAKQECKIKYSERV (nuclear localisation signal and membrane anker) [NLS peptide] |  | prevented CnA binding to importin β1; also recorded: abrogated the interaction of calcineurin and importin β1 | suppressed calcineurin nuclear import | 273±11% | dilation could prevented | able to suppress the development of myocardial hypertrophy in vivo | transcriptional activity of the CnA/NF-ATc signalling pathway ([4]; cardiomyocytes stimulated with Ang II (10 μM), n=8, p<0.05): 123±8%; transcriptional activity of calcineurin/NF-ATc (NF-ATc luciferase reporter plasmid), in words ([4]; neonatal rat cardiomyocytes, Ang II, FIG. 5A bottom, FIG. 5D): dose dependent manner; cell size [5]: 728±65 μm^2; expression of brain natriuretic peptide (BNP) [5]: 88±8%; protein synthesis [5]: 133±12%; f-MHC expression as molecular marker of hypertrophy (Ang II treated mice; mice treated with angiotensin for 4 weeks, FIG. 7B): prevented expression of this marker; Luciferase activity (NFAT Luciferase reporter): suppressed Luciferase activity
KQECKIKYSERV [SEQ ID NO: 2] |  |  |  |  |  |  | toxic effect ([4]; higher concentrations (>1 μM), values below background levels of untreated cardiomyocytes, FIG. 5D): toxic effect is possible
blocking peptide: mimics the calcineurin NLS, with peptide extension to increase membrane permeability; synthesised as a cyclic peptide for in vivo use (AAVALLPAVLLALLAKQECKIKYSERV; also: synthesised as cyclic peptide, mode not given here) | did not prevent nuclear accumulation |  |  |  |  | able to prevent the development of myocardial hypertrophy; also recorded: prevents myocardial hypertrophy | T cell protein synthesis (H3-thymidin incorporation) / activation of lymphocytes (T cells): inhibited significantly; also recorded: significantly prevented activation of lymphocytes; calcineurin entry into the nucleus in vivo (Ang II treated mice; Ang II minipump mice, cellular level): suppressed calcineurin entry into the nucleus; heart weight (Ang II treated mice; mice treated with Ang II for 4 weeks, cyclic peptide with membrane permeability extension, 25 mg/kg body weight/day i.p. twice daily, FIG. 7A): prevented an increase in heart weight
